# From patent publication US9850225B2, “Compounds useful as immunomodulators” (BRISTOL-MYERS SQUIBB COMPANY, priority 2014, dated 2017)
# Biological target: PD-1/PD-L1 interaction (PD-1-Ig / PD-L1-His) (Homo sapiens (Human), UniProt Q9NZQ7)
# Assay: PD-1/PD-L1 Homogenous Time-Resolved Fluorescence (HTRF) binding assay
# Details: PD-1/PD-L1 HTRF binding assay; value given as range class; read-out: Range or IC50
# Text: The ability of the compounds of formula (I) to bind to PD-L1 was investigated using a PD-1/PD-L1 Homogenous Time-Resolved Fluorescence (HTRF) binding assay.
# Homogenous Time-Resolved Fluorescence (HTRF) Binding Assay.
# The interaction of PD-1 and PD-L1 can be assessed using soluble, purified preparations of the extracellular domains of the two proteins. The PD-1 and PD-L1 protein extracellular domains were expressed as fusion proteins with detection tags, for PD-1, the tag was the Fc portion of Immunoglobulin (PD-1-Ig) and for PD-L1 it was the 6 histidine motif (PD-L1-His). All binding studies were performed in an HTRF assay buffer consisting of dPBS supplemented with 0.1% […] bovine serum albumin and 0.05% (v/v) Tween-20. For the h/PD-L1-His binding assay, inhibitors were pre-incubated with PD-L1-His (10 nM final) for 15 m in 4 μl of assay buffer, followed by addition of PD-1-Ig (20 nM final) in 1 μl of assay buffer and further incubation for 15 m. HTRF detection was achieved using europium crypate-labeled anti-Ig (1 nM final) and allophycocyanin (APC) labeled anti-His (20 nM final). Antibodies were diluted in HTRF detection buffer and 5 μl was dispensed on top of the binding reaction. […] Additional binding assays were established between the human proteins PD-1-Ig/PD-L2-His (20 & 5 nM, respectively) and CD80-His/PD-L1-Ig (100 & 10 nM, respectively). […]
# Sequence of PD-1/PD-L1 interaction (PD-1-Ig / PD-L1-His) (Q9NZQ7 other isoform, or with tags, fused parts or gaps): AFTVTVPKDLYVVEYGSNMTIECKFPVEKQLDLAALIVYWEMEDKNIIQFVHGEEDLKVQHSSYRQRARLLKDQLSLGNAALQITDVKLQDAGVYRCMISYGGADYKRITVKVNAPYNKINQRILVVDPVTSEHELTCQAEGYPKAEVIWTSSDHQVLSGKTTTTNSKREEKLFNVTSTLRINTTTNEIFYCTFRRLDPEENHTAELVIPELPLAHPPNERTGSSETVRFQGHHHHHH
row,Structure (SMILES),IC50 [nM]
1,"Cc1c(COc2cc(OCc3cncc(C#N)c3)c(CN3CCCC[C@H]3C(=O)NS(=O)(=O)C(F)(F)F)cc2Cl)cccc1-c1ccc2c(c1)OCCO2 [Example 1258, (S)-1-(5-chloro-2-((5-cyanopyridin-3-yl)methoxy)-4-((3-(2,3-dihydrobenzo[b][1,4]dioxin-6-yl)-2-methylbenzyl)oxy)benzyl)-N-((trifluoromethyl)sulfonyl)piperidine-2-carboxamide]",10 to 100
2,"N#Cc1cccc(COc2cc(OCc3cccc(-c4ccc5c(c4)OCCO5)c3Cl)ccc2CN[C@H](CO)C(=O)O)c1 [Example 1146, (R)-2-(4-(2-chloro-3-(2,3-dihydrobenzo[b][1,4]dioxin-6-yl)benzyloxy)-2-(3-cyanobenzyloxy)benzylamino)-3-hydroxypropanoic acid]",0.6 to 10
3,"COc1cc(OCc2cccc(-c3ccc4c(c3)OCCO4)c2C)cc(OCc2cccc(C#N)c2)c1CNC[C@@H](O)CC(=O)O [Example 1140, (S)-4-((2-((3-cyanobenzyl)oxy)-4-((3-(2,3-dihydrobenzo[b][1,4]dioxin-6-yl)-2-methylbenzyl)oxy)-6-methoxybenzyl)amino)-3-hydroxybutanoic acid]",0.6 to 10
4,"CC(=O)NCCNCc1cc(C)c(OCc2cccc(-c3ccc4c(c3)OCCO4)c2C)cc1OCc1cncc(C#N)c1 [Example 1282, N-(2-(2-((5-cyanopyridin-3-yl)methoxy)-4-(3-(2,3-dihydrobenzo[b][1,4]dioxin-6-yl)-2-methylbenzyloxy)-5-methylbenzylamino)ethyl)acetamide]",0.6 to 10
5,"CC(=O)NCCNCc1cc(Cl)c(OCc2cccc(-c3ccc4c(c3)OCCO4)c2C)cc1OCc1cncc(C#N)c1 [Example 1251, N-(2-((5-chloro-2-((5-cyanopyridin-3-yl)methoxy)-4-((3-(2,3-dihydrobenzo[b][1,4]dioxin-6-yl)-2-methylbenzyl)oxy)benzyl)amino)ethyl)acetamide]",0.6 to 10
6,"Cc1c(COc2ccc(CN[C@@](C)(CO)C(=O)O)c(OCc3cccc(C#N)c3)c2)cccc1-c1ccc2c(c1)OCCO2 [Example 1128, (S)-2-((2-((3-cyanobenzyl)oxy)-4-((3-(2,3-dihydrobenzo[b][1,4]dioxin-6-yl)-2-methylbenzyl)oxy)benzyl)amino)-3-hydroxy-2-methylpropanoic acid]",0.6 to 10
7,"C[C@](CO)(NCc1ccc(OCc2cccc(-c3ccc4c(c3)OCCO4)c2Cl)cc1OCc1cccc(C#N)c1)C(=O)O [Example 1148, (R)-2-(4-(2-chloro-3-(2,3-dihydrobenzo[b][1,4]dioxin-6-yl)benzyloxy)-2-(3-cyanobenzyloxy)benzylamino)-3-hydroxy-2-methylpropanoic acid]",0.6 to 10

# Now from value to compound:
row,IC50 [nM],Structure (SMILES)
1,10 to 100,"Cc1c(COc2cc(OCc3cccc(C#N)c3)c(CN[C@@H](C(=O)O)c3ccc(O)cc3)cc2Cl)cccc1-c1ccc2c(c1)OCCO2 [Example 1161, (R)-2-((5-chloro-2-((3-cyanobenzyl)oxy)-4-((3-(2,3-dihydrobenzo[b][1,4]dioxin-6-yl)-2-methylbenzyl)oxy)benzyl)amino)-2-(4-hydroxyphenyl)acetic acid]"
2,100 to 20000,"Cc1c(COc2cc(OCc3cccc(C#N)c3)c(CN[C@@H](Cn3ncnn3)C(=O)O)cc2Cl)cccc1-c1ccc2c(c1)OCCO2 [Example 1227, (S)-2-((5-chloro-2-((3-cyanobenzyl)oxy)-4-((3-(2,3-dihydrobenzo[b][1,4]dioxin-6-yl)-2-methylbenzyl)oxy)benzyl)amino)-3-(2H-tetrazol-2-yl)propanoic acid]"
3,10 to 100,"Cc1c(COc2cc(OCc3cccc(C#N)c3)c(CNC(Cc3ccc(O)cc3)C(=O)O)cc2Cl)cccc1-c1ccc2c(c1)OCCO2 (stereo not shown) [Example 1187, 2-((5-chloro-2-((3-cyanobenzyl)oxy)-4-((3-(2,3-dihydrobenzo[b][1,4]dioxin-6-yl)-2-methylbenzyl)oxy)benzyl)amino)-3-(4-hydroxyphenyl)propanoic acid]"
